The values below come from patent publication US20240002351A1, “QUINAZOLIN-4-ONE AND THIENO[2,3-D]PYRIMIDIN-4-ONE INHIBITORS OF ERBB4 (HER4) FOR USE IN THE TREATMENT OF CANCER” (UNIVERSITEIT ANTWERPEN, priority 2021, published 2024).

Series [1] concerns Human dermal fibroblasts (HDF). The experiment in a line: In vitro fibrosis assay, TGFβ-stimulated HDF (qRT-PCR). In kind it is cell-based. The note with it: TGFβ 10 ng/mL, 4-32 μM (FIGS. 8C-8F). How it is done: (§1) Human dermal fibroblasts (HDF, Cell applications, 106-05A) were cultured in Dulbecco's modified Eagle's medium (DMEM, ThermoFisher Scientific, 11995065) supplemented with 10% (v/v) heat-inactivated fetal bovine serum (FBS, ThermoFisher Scientific, 10082147), 1% penicillin/streptomycin and 1 mL polymyxin B and were maintained at 37° C. in humidified atmosphere of 5% CO2 in air. Human atrial cardiac fibroblasts (HCF, Innoprot, P10454) were cultured in fibroblast medium (Innoprot, P60108) supplemented with fetal bovine serum, fibroblast growth supplement and penicillin/streptomycin and were maintained at 37° C. in humidified atmosphere of 5% CO2 in air.
Following 1-9 passages, HDF and HCF were seeded at 0.3×10^6 cells/well in 1 mL cell medium in 12-well plates and incubated overnight at 37° C. in humidified atmosphere of 5% CO2 in air. Next, cells were put on serum starved medium (0.1% FBS) for 8 hours and then stimulated for 24 hours with either PBS, active compound (4-32 μM) or non-active compound (NA1, NA2; 4-32 μM) on top of TGFβ (10 ng/mL, Peprotech, 100-21). […]
RNA was extracted using Nucleospin RNA XS (Machery Nagel) according to the manufacturer's instructions. […] Expression levels were calculated using the comparative cycle method and expressed as fold change to appropriate (background) control. […]
On the technique in general: In qPCR the cycle at which signal appears reflects the starting amount.

Series [2] concerns Human atrial cardiac fibroblasts (HCF). The experiment in a line: In vitro fibrosis assay, TGFβ-stimulated HCF (qRT-PCR). The note with it: TGFβ 10 ng/mL, 24 hours (FIG. 9). In kind it is cell-based. How it is done:
as §1
Following 1-9 passages, HDF and HCF were seeded at 0.3×10^6 cells/well in 1 mL cell medium in 12-well plates and incubated overnight at 37° C. in humidified atmosphere of 5% CO2 in air. Next, cells were put on serum starved medium (0.1% FBS) for 8 hours and then stimulated for 24 hours with either PBS, active compound (4-32 μM) or non-active compound (NA1, NA2; 4-32 μM) on top of TGFβ (10 ng/mL, Peprotech, 100-21). […] Next, cells were lysed using 100 μL lysis buffer RA1 (of RNA isolation kit below) supplemented with β-mercapto-ethanol (100:1), scraped with a cell scraper and transferred to centrifuge tubes to be stored at −20° C. for a maximum of 2 weeks before RNA isolation.
RNA was extracted using Nucleospin RNA XS (Machery Nagel) according to the manufacturer's instructions. For cDNA synthesis, total RNA was added to a solution containing buffer with random hexamers and reverse transcriptase enzyme. The PCR was performed using the following parameters: 10 minutes at 25° C., 30 minutes at 48° C., 5 minutes at 95° C. RT-qPCR on the cDNA samples was performed using Taqman Universal PCR Master Mix (Applied Biosystems) and Taqman primers according to the manufacturer's instructions. […] Expression levels were calculated using the comparative cycle method and expressed as fold change to appropriate (background) control. […]

Series [3] in a line: Metabolic stability, human liver microsomes. In kind it is in vitro ADME. How it is done: A mixture of 713 μL milliQ water (Millipore, MA, USA), 200 μL 0.5 M phosphate buffer (pH 7.4, BD Diagnostic Systems, MD, USA), 50 μL NADPH regenerating system solution A (BD Biosciences, CA, USA), 10 μL NADPH regenerating system solution B (BD Biosciences, CA, USA) and 2 μL compound (5 mM in DMSO) was prepared and heated for 5 min at 37° C. Twenty-five μL of liver microsomes (0.5 mg protein/mL, Corning B.V. Life Sciences, Amsterdam, Netherlands) was added to the mixture and 20 μL samples were withdrawn at 0, 0.25, 0.5 and 1, 2, 4, 6 and 24 hours. Eighty μL (4×20 μL) of cold acetonitrile (Sigma-Aldrich, MO, USA) was added to the samples on ice for 10 min. Afterwards, the mixtures were centrifuged at 13,000 rpm for 5 min at 4° C. Seventy-five μL of an acetonitrile/water (10/90) mixture was added to 25 μL supernatant and the obtained samples were analyzed by LC-MS/MS (Waters Acquity H-class UPLC system with ion trap mass spectrometer, Bruker Daltonics Esquire 3000 plus, and Agilent 1100 Series LC system) in triplicate.
Background: Liver microsomes are a subcellular fraction often used to study metabolism.

A further series concerns C57BL/6N male mice. The experiment in a line: In vivo anti-fibrotic capacity, Angiotensin II left ventricular remodeling mouse model. How it is done:
Left ventricular (LV) remodeling was induced in 13-week old C57BL/6N male mice by Angiotensin II (AngII, 1000 ng/kg/min, Sigma Aldrich) using a subcutaneous micro-osmotic pump (model 1004, Alzet). Next to AngII, the mice were also given a second s.c. micro-osmotic pump filled with selected hit compound (83 μg/kg/h) or vehicle. Control groups (sham, compound alone, AngII alone) were also implemented. After 4 weeks of treatment, mice were euthanized and hearts were collected.
Hearts were fixed and embedded in paraffin. The LV interstitial collagen fraction was determined in Masson trichrome blue-stained areas. Cardiomyocyte outlines were stained with antibodies specific for laminin (NB300-144; Novus Biologicals), and cardiomyocyte cross-sectional area was determined by averaging 20 representative cardiomyocytes per section per animal (5 sections/animal). Data was skewed, therefore log transformation was performed. Endothelial cells were stained with isolectin B4 (Vector Laboratories) and capillary density was determined as the number of capillaries per 100 cardiomyocytes by averaging the number of capillaries per cardiomyocytes on 5 images per animal. Capillaries and cardiomyocytes were counted (by an investigator blinded to the treatment protocol) per section per animal (5 sections/animal). Capillaries were normalized to tissue area to calculate capillary density.

In a further series the test system is C57BL/6N mice. The experiment in a line: In vivo acute toxicity study. Particulars: accumulative i.p. doses, hematoxylin and eosin staining (FIG. 15). How it is done: An acute toxicity study was performed on C57BL/6N mice using accumulative doses of compound 1 (n=3) or vehicle (n=3, 10% DMSO). On day 1, mice received 0.4 mg/kg cpd 1, day 2 1.2 mg/kg, day 3 4 mg/kg, day 4 4 mg/kg by intraperitoneal injection. At day 4, 1 hour after injection of 4 mg/kg, the mice were sacrificed and the hearts, liver, and kidney excised. The histology of the organs was evaluated by hematoxylin and eosin staining.

As to `CC(Sc1nc2ccccc2c(=O)n1C1CCCC1)c1nc2ccccc2n1C(F)F` (centres unmarked) [Compound 7], the “antifibrotic effect (col1a1 and col3a1 levels)” value in series [1] is given as “significant dose-dependent antifibrotic effects”. Besides, the “col3a1 levels in comparison with TGFβ control” value in series [2] is reported as “significantly decreases col3a1 levels”.
`Cc1sc2nc(SC(C)C(=O)Nc3sccc3C(N)=O)n(CC(C)C)c(=O)c2c1C` (centres unmarked) [Compound 6]: in series [1], the “antifibrotic effect (col1a1 and col3a1 levels)” value is given as “significant dose-dependent antifibrotic effects”. Moreover, the “t1/2 human” value in series [3] (human liver microsomes) was determined as 17 min. Moreover, in series [3] (human, liver microsomes, pH 7.4, human liver microsomes, read-out: t1/2 human), the half-life at 10 µM was in the range of 17 to 18 min.
With `O=C(NC1CC1)C(Sc1nc2ccccc2c(=O)n1C1CCCC1)c1ccccc1` (centres unmarked) [Compound 1], the “col1a1 levels in comparison with TGFβ control” value in series [2] is given as “significantly decrease col1a1 levels”. Also, the “capillary density compared to vehicle” value in the series on C57BL/6N male mice (4 weeks (FIG. 14D)) is on record as “significantly increased capillary density”. In the series with C57BL/6N male mice (AngII 1000 ng/kg/min + compound 83 μg/kg/h s.c. pump, 4 weeks (FIG. 14A)), the “myocardial fibrosis compared to angiotensin II/vehicle” value is reported as “significantly attenuated myocardial fibrosis”. Moreover, in the series on C57BL/6N male mice (add-on to angiotensin II, 4 weeks (FIG. 14B)), the “HW:BW ratio” value is “no effect”. In the series on C57BL/6N male mice (add-on to angiotensin II, 4 weeks (FIG. 14C)), the “cardiomyocyte cross sectional area compared to angiotensin II/vehicle” value was “did increase”. In the series with C57BL/6N mice, the “histology of heart, liver and kidney (treated vs control group)” value is “no significant difference in structures of cardiac, liver and renal cells”.
